Consider five compounds from patent publication US11000488B2 (priority 2019, dated 2021).

For series [1] the following is noted: human, in vivo, cited from earlier work.
Series [2] in a line: steady-state pharmacokinetics, 50 mg tramadol vs 20 mg desmetramadol every 6 hours, nine doses, trials A and B (B with paroxetine). The following applies: after tramadol dosing, with vs without paroxetine.
A further series deals with pupil diameter. Kind of series: pupillometry, trial A. The series is classed as in vivo, human. The following applies: after dosing.
For another series, the system named is cold-induced pain. Kind of series: cold pressor test (cold-induced pain), trials A and B. The series is classed as in vivo, human.
For series [3] the following is noted: single dose 100 mg racemic tramadol, cited from earlier work.
Series [4] can be described thus: respiration and other vital signs, trials A and B. The following applies: trial A.
Series [5] is described as follows: drug-related adverse events, safety population, trials A and B.
Where [6] appears, read: trial A (n = 43, males), 0-10 VAS.
Setting [7] is: trial B (n = 18, females), with paroxetine.
Setting [8] is: trial B (n = 18, females), with paroxetine, 0-10 VAS.
[9] abbreviates: trial B (n = 42, males), with paroxetine.
The mark [10] stands for this setting: trial B (n = 42, males), with paroxetine, 0-10 VAS.

Like-named read-outs stand apart in the source and are kept apart here. Some results are limits rather than exact numbers.

`COc1ccc2c3c1O[C@H]1C(=O)CC[C@H]4[C@@H](C2)N(C)CC[C@]314` [hydrocodone]: the lethal oral dose in series [1] was 90 mg.

As to `COc1cccc(C2(O)CCCCC2CN(C)C)c1` (single isomer, unassigned; (-)) [(−)-tramadol, 1S,2S-tramadol, reference compound], the “levels in trial B as % of levels in trial A” value in series [2] came out at 200%.

Turning to `COc1ccc2c3c1O[C@H]1C(=O)CC[C@@]4(O)[C@@H](C2)N(C)CC[C@]314` [oxycodone], the lethal oral dose in series [1] is 40 mg.

Consider `COc1cccc(C2(O)CCCCC2CN(C)C)c1` (racemic) [tramadol], for which the “pupil diameter, mean paired reduction [SD] compared to placebo” value in the series on pupil diameter is −0.7 (0.6) millimeters. Besides, in the series with cold-induced pain (trial A), the “average duration of tolerance to pain” value is 62 s. Moreover, in the series with cold-induced pain (trial A (n = 43, males)), the “Time to first pain, mean difference versus placebo” value is 2.1 s and the “Time to withdrawal, mean difference versus placebo” value is on record as 12.4 (4.4) seconds. In addition, in the series with cold-induced pain (setting [6]), the “Pain intensity at 30 seconds, MPD versus placebo” value was −0.46 and the “Pain intensity at first perception, MPD versus placebo” value is reported as −0.21. For the same compound, in the series on cold-induced pain (trial A (n = 43, males), listed as TRAMADOL), the “Time to withdrawal, mean difference versus placebo” value stood at 12.4 s. The “Average (SD) subject-reported pain scores at 30 seconds” value in the series on cold-induced pain (trial A, 0-10 VAS) is recorded as 6.0 (1.7). In the series with cold-induced pain (setting [7]), the “Time to first pain, MPD versus placebo” value was 2.6 s and the “Time to withdrawal, MPD versus placebo” value was 7.5 s. Also, in the series with cold-induced pain (setting [8]), the “Pain intensity at 30 seconds, MPD versus placebo” value stood at 0.03 and the “Pain intensity at first perception, MPD versus placebo” value worked out at 0.01. For the same compound, in the series with cold-induced pain (setting [9]), the “Time to first pain, MPD versus placebo” value came out at 1.5 s and the “Time to withdrawal, MPD versus placebo” value is on record as 6.9 (1.6) seconds. Further, in the series with cold-induced pain (setting [10]), the “Pain intensity at 30 seconds, MPD versus placebo” value is “failed to statistically differentiate from placebo” and the “Pain intensity at first perception, MPD versus placebo” value is recorded as −0.08. Besides, the “Pain intensity at 30 seconds, MPD versus placebo” value with cold-induced pain (trial B (n = 42, males), with paroxetine, 0-10 VAS, listed as TRAMADOL) is −0.25. Also, the “Time to withdrawal, MPD versus placebo” value in the series on cold-induced pain (trial B (n = 42, males), with paroxetine, listed as TRAMADOL) was determined as 6.9 s. For the same compound, in series [3] (EM group (11 EMs)), the subjects experiencing nausea is given as 9%. For the same compound, the subjects experiencing nausea in series [3] (UM group (11 UMs)) was around 50%. The lethal dose in series [1] is above 5 grams. Also, in series [4], the “pre-dose versus post-dose effect on respiratory rate compared to placebo or each other” value is listed as “no discernable pre-dose versus post-dose effect”. Further, in series [5] (trial A), the Deaths is 0 (0) N (%), the “Severe AEs” value is given as 0 (0) N (%) and the “subjects reporting drug-related AEs” value stood at 49%. The “All AEs” value in series [5] (trial A (N = 43)) is 20 (49) N (%). For the same compound, in series [5] (trial A, all subjects), the Dizziness is 5 (12) N (%), the Euphoria is recorded as 0 (0) N (%), the Feel abnormal is recorded as 1 (2) N (%) and the Feel hot is recorded as 0 (0) N (%). Moreover, in series [5] (trial A, all subjects), the Headache was 7 (17) N (%), the Nausea is reported as 5 (12) N (%), the Presyncope is 0 (0) N (%) and the Pruritus was 4 (10) N (%). Further, in series [5] (trial A, all subjects), the Somnolence is reported as 2 (5) N (%), the Spasticity is on record as 1 (2) N (%), the Sweating is 0 (0) N (%) and the Vomiting is 1 (2) N (%). Further, in series [5] (trial A, male), the Dizziness is reported as 5 (12) N (%), the Euphoria is recorded as 0 (0) N (%), the Feel abnormal is 1 (2) N (%) and the Feel hot is 0 (0) N (%). In addition, in series [5] (trial A, male), the Headache was 7 (17) N (%), the Nausea is on record as 5 (12) N (%), the Presyncope was 0 (0) N (%) and the Pruritus is 4 (10) N (%). Besides, in series [5] (trial A, male), the Somnolence was 2 (5) N (%), the Spasticity was 1 (2) N (%), the Sweating was 0 (0) N (%) and the Vomiting is 1 (2) N (%). Also, in series [5] (trial B), the Deaths was 0 (0) N (%) and the “Severe AEs” value is reported as 0 (0) N (%). The “All AEs” value in series [5] (trial B (N = 60), with paroxetine) is listed as 30 (50) N (%). In series [5] (trial B, all subjects), the Dizziness was 8 (13) N (%), the Euphoria was 1 (2) N (%), the Feel abnormal is given as 2 (3) N (%) and the Feel hot is 0 (0) N (%). In series [5] (trial B, all subjects), the Headache is reported as 6 (10) N (%), the Nausea is reported as 8 (13) N (%), the Presyncope is 1 (2) N (%) and the Pruritus is recorded as 1 (2) N (%). In series [5] (trial B, all subjects), the Somnolence is given as 4 (7) N (%), the Spasticity is on record as 3 (5) N (%), the Sweating is given as 1 (2) N (%) and the Vomiting is given as 2 (3) N (%). Also, in series [5] (trial B, female), the Dizziness is 4 (22) N (%), the Euphoria is recorded as 0 (0) N (%), the Feel abnormal is listed as 0 (0) N (%) and the Feel hot is reported as 0 (0) N (%). Further, in series [5] (trial B, female), the Headache was 6 (33) N (%), the Nausea was 2 (11) N (%), the Presyncope is recorded as 0 (0) N (%) and the Pruritus is reported as 1 (6) N (%). In series [5] (trial B, female), the Somnolence is reported as 2 (11) N (%), the Spasticity is 0 (0) N (%), the Sweating was 0 (0) N (%) and the Vomiting is 0 (0) N (%). In series [5] (trial B, male), the Dizziness is listed as 4 (10) N (%), the Euphoria is 1 (2) N (%), the Feel abnormal is reported as 2 (5) N (%) and the Feel hot is recorded as 0 (0) N (%). Moreover, in series [5] (trial B, male), the Headache is 0 (0) N (%), the Nausea was 6 (14) N (%), the Presyncope is recorded as 1 (2) N (%) and the Pruritus was 0 (0) N (%). Moreover, in series [5] (trial B, male), the Somnolence is reported as 2 (5) N (%), the Spasticity was 3 (7) N (%), the Sweating was 1 (2) N (%) and the Vomiting was 2 (5) N (%). In series [5] (trial B, same subjects), the “headache, tramadol AE profile compared to the desmetramadol AE profile” value is recorded as −40%; the “nausea, tramadol AE profile compared to the desmetramadol AE profile” value is −50%; the “presyncope, tramadol AE profile compared to the desmetramadol AE profile” value was −83%; the “pruritus, tramadol AE profile compared to the desmetramadol AE profile” value is listed as −75%. Moreover, in series [5] (trial B, same subjects), the “somnolence, tramadol AE profile compared to the desmetramadol AE profile” value was −60% and the “vomiting, tramadol AE profile compared to the desmetramadol AE profile” value is listed as −78%. For the same compound, the “subjects reporting drug-related AEs” value in series [5] (trial B, with paroxetine) stood at 50%.

For `COc1cccc([C@@]2(O)CCCC[C@@H]2CN(C)C)c1` [(+)-tramadol, 1R,2R-tramadol, reference compound], in series [2], the “levels in trial B as % of levels in trial A” value was determined as 200%.
